“And” between values parts separate entries of the source, which are not always exact repeats. Equal entries are not always repeated. Marks after values point to notes of the source that are not given here. Values belong to the compound of their own block, whether it stands above or below them.
Columns and labels:
HBRX1298 xenograft = experiment: ER+ primary breast cancer model HBRX1298 in NSG mice; type: in vivo, mouse; settings: Day 63
Experimental: HBRX1298 tumors were established in NSG female mice by injection of a tumor brei into the inguinal mammary fat pad area. Mice were implanted with 0.72 mg estradiol/90-day release pellets several days prior to cell implantation. […] The 80 mg/kg QD dose inhibited tumor volumes close to the extent observed in mice with estradiol pellet removal (% ΔT/ΔC=32% and 21%, respectively; p<0.05).

[1] = system: MCF-7 parental (ER wildtype) cells; experiment: cells; settings: Homo sapiens, MCF7, 168 h, read-out: MCF-7 proliferation Ave IC50, ESR1 WT
MCF-7 xenograft [2] = experiment: Dose fractionation study in mice with MCF-7 xenografts; type: in vivo, mouse; settings: for Tumor response ΔT/ΔC / Tumor response Regression: Day 61
MCF-7 xenograft [3] = experiment: Orthotopic MCF-7 xenograft model in NSG mice; type: in vivo, mouse; settings: for Tumor response in words: LSZ102 20 mg/kg QD, tamoxifen 60 mg/kg, fulvestrant 5 mg/mouse
Experimental: Mice were supplemented with estradiol (0.72 mg estradiol/90-day release pellets) to further support MCF-7 tumor growth several days prior to cell implantation.

MCF-7 xenograft [4] = experiment: LSZ102 with alpelisib in orthotopic MCF-7 breast cancer model in mice; type: in vivo, mouse; settings: Day 62
clinical = settings: human, in vivo
Description: Secondary objectives are to evaluate preliminary anti-tumor activity and looking at overall response rate (ORR), duration of response (DOR), progression-free survival (PFS), disease control rate (DCR), pharmacokinetics (PK) and pharmacodynamics (PD).

[5] = system: ER target genes GREB1 and PGR; experiment: qRT-PCR of ER target genes in MCF-7 WT cells
[6] = system: ER regulated transcripts GREB1 and PGR; experiment: GREB1 and PGR mRNA in MCF-7 tumors after final dose; type: in vivo, mouse; settings: higher dose levels, tumors collected 24 hours after final treatment on day 61, normalized to B2M
Description: Data is plotted for individual animals and is normalized to expression of beta-2 microglobulin (B2M).

[7] = Phase I/Ib study, safety and tolerability; type: in vivo, human
Description: (§1) Eligible patients, ≥18 years old, have histologically confirmed ER+ breast cancer that has progressed after endocrine therapy for metastatic or locally advanced disease or recurrence while on, or within 12 months of the end of adjuvant treatment with an aromatase inhibitor. […] As of Jul. […] As of Jul. 23, 2018, 13 patients continued ongoing treatment and 3 patients discontinued due to progressive disease.

[8] = system: advanced or metastatic ER+ breast cancer; experiment: Phase I/Ib study, anti-tumor activity; type: in vivo, human
Description: as §1

ERα = biological target: T1, ERα (Homo sapiens, UniProt P03372); settings: MCF-7 parental cells, 24 hr treatment
T1 sequence (P03372 1-595): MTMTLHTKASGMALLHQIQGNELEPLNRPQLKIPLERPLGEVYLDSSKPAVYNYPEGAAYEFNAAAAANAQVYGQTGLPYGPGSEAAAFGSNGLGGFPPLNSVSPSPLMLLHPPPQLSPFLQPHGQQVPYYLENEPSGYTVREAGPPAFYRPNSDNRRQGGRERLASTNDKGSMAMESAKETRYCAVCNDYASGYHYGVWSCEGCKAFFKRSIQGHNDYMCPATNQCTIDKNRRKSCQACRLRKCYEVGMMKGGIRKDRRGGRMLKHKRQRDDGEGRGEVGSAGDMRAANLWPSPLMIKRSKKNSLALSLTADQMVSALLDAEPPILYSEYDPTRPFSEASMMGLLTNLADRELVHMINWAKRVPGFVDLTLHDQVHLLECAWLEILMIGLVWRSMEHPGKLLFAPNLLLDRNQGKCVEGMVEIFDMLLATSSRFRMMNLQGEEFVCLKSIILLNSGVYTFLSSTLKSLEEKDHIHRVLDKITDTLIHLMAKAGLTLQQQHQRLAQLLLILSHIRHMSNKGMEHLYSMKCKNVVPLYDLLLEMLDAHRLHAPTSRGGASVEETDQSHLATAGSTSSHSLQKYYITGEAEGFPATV

[9] = All Arm A treatment period patients (N = 73)
[10] = LSZ102 single agent arm (n = 74)
[11] = All LSZ102 single agent arm patients, evaluable n = 72
[12] = 60 mg/kg PO QD x 5 days x QWeek, Day 48

- Increase in exposure (AUC) with high fat, high calorie meal compared to fasted (clinical): ~2 fold
- Tmax (clinical; po): 2 to 3 h
- half-life (clinical; po): 3.1 to 5.6 h
Compound: CC(F)(F)c1cc(F)ccc1-c1sc2cc(O)ccc2c1Oc1ccc(/C=C/C(=O)O)cc1 [LSZ102, (E)-3-(4-((2-(2-(1,1-difluoroethyl)-4-fluorophenyl)-6-hydroxybenzo[b]thiophen-3-yl)oxy)phenyl)acrylic acid]
- Tumor response ΔT/ΔC (HBRX1298 xenograft; 20 mg/kg PO QD): 45* %
- Tumor response ΔT/ΔC (HBRX1298 xenograft; 80 mg/kg PO QD): 32%
- IC50 [1]: 5.2 nM
- Tumor response ΔT/ΔC (MCF-7 xenograft [2]; 5 mg/kg PO BID): 11* %
- Tumor response ΔT/ΔC (MCF-7 xenograft [2]; 10 mg/kg PO BID): −1* %
- Tumor response ΔT/ΔC (MCF-7 xenograft [2]; 10 mg/kg PO QD): 16* %
- Tumor response Regression (MCF-7 xenograft [2]; 20 mg/kg PO QD): 5* %
- Tumor response ΔT/ΔC (MCF-7 xenograft [2]; 20 mg/kg PO QD): −2* %
- Tumor response Regression (MCF-7 xenograft [2]; 40 mg/kg PO BID): 21* %
- Tumor response ΔT/ΔC (MCF-7 xenograft [2]; 40 mg/kg PO BID): −8* %
- Tumor response Regression (MCF-7 xenograft [2]; 80 mg/kg PO QD): 31* %
- Tumor response ΔT/ΔC (MCF-7 xenograft [2]; 80 mg/kg PO QD): −11* %
- Efficacy of QD dosing versus split-dose BID dosing (MCF-7 xenograft [2]; MCF-7 xenografts, FIG. 8A): equivalent efficacy
- Tumor response ΔT/ΔC (MCF-7 xenograft [3]; 1 mg/kg PO QD, Day 48): 56%
- Tumor response ΔT/ΔC (MCF-7 xenograft [3]; 3 mg/kg PO QD, Day 48): 51%
- Tumor response ΔT/ΔC (MCF-7 xenograft [3]; 10 mg/kg PO QD, Day 48): 25%
- Tumor response ΔT/ΔC (MCF-7 xenograft [3]; 20 mg/kg PO QD, Day 48): 2.4% and 2* %
- Tumor response in words (MCF-7 xenograft [3]): tumor stasis was achieved and maintained for 48 days
- Tumor response ΔT/ΔC (MCF-7 xenograft [4]; LSZ102 10 mg/kg QD PO, 10 mg/kg): 13%
- Exposure versus dose (clinical; po): dose-proportional increases in LSZ102 exposure
- ESR1 mRNA levels [5]: not significantly reduced
- mRNA expression of GREB1 and PGR [5]: dose response inhibition
- Inhibition of GREB1 and PGR mRNA levels in tumors [6]: stronger inhibition
- DLT alanine aminotransferase increase, number of patients ([7]; 450 mg QD with food group): one
- DLT aspartate aminotransferase increase, number of patients ([7]; 450 mg QD with food group): one
- DLT vomiting, number of patients ([7]; 600 mg QD fasted group): one
- DLT diarrhea, number of patients ([7]; 900 mg QD fasted group): two
- Constipation, G1 [7, 9]: 7 (9.6) n (%)
- Constipation, G2 [7, 9]: 1 (1.4) n (%)
- Constipation, G3 [7, 9]: 0 n (%)
- Decrease appetite, G1 [7, 9]: 11 (15.1) n (%)
- Decrease appetite, G2 [7, 9]: 2 (2.7) n (%)
- Decrease appetite, G3 [7, 9]: 0 n (%)
- Diarrhea, G1 [7, 9]: 25 (34.2) n (%)
- Diarrhea, G2 [7, 9]: 11 (15.1) n (%)
- Diarrhea, G3 [7, 9]: 3 (4.1) n (%)
- Fatigue, G1 [7, 9]: 5 (6.8) n (%)
- Fatigue, G2 [7, 9]: 3 (4.1) n (%)
- Fatigue, G3 [7, 9]: 0 n (%)
- Nausea, G1 [7, 9]: 32 (43.8) n (%)
- Nausea, G2 [7, 9]: 10 (13.7) n (%)
- Nausea, G3 [7, 9]: 2 (2.7) n (%)
- Suspected related AEs, Total, G1 [7, 9]: 38 (52.1) n (%)
- Suspected related AEs, Total, G2 [7, 9]: 20 (27.4) n (%)
- Suspected related AEs, Total, G3 [7, 9]: 7 (9.6) n (%)
- Vomiting, G1 [7, 9]: 14 (19.2) n (%)
- Vomiting, G2 [7, 9]: 4 (5.5) n (%)
- Vomiting, G3 [7, 9]: 1 (1.4) n (%)
- Discontinuation due to adverse event [7, 10]: 2 (2.7) n (%)
- Tolerability ([7]; oral single agent, doses up to 600 mg QD and up to 300 mg BID): well tolerated
- Drug-related diarrhea, any grade ([7]; single agent Arm A): 53.4%
- Drug-related nausea, any grade ([7]; single agent Arm A): 60.2%
- Drug-related vomiting, any grade ([7]; single agent Arm A): 26.1%
- Drug-related Grade 3 vomiting ([7]; single agent Arm A, 1 patient): 1.4%
- Drug-related Grade 3 nausea ([7]; single agent Arm A, 2 patients): 2.7%
- Drug-related Grade 3 diarrhea ([7]; single agent Arm A, 3 patients): 4.1%
- Dose limiting toxicities (DLTs), patients ([7]; single agent, all dose groups, four patients): 5.9%
- Patients requiring dose reduction due to AEs ([7]; single agent, all gastrointestinal toxicities): seven
- Complete response (CR) [8, 11]: 0 n (%)
- Disease control rate (DCR) [8, 11]: 27 (37.5%) n (%)
- Non-CR/Non-PD [8, 11]: 7 (9.7) n (%)
- Overall response rate (ORR) [8, 11]: 1 (1.4) n (%)
- Partial response (PR) [8, 11]: 1 (1.4) n (%)
- Progressive disease (PD) [8, 11]: 40 (55.6) n (%)
- Response unknown [8, 11]: 6 (8.3) n (%)
- Discontinuation due to progressive disease [8, 10]: 59 (79.7) n (%)
- Disease control rate ([8]; single-agent LSZ102): 37.5%

- ER protein levels (immunoblot) (ERα): significantly reduce ER protein levels
Compound: C[C@]12CC[C@@H]3c4ccc(O)cc4C[C@@H](CCCCCCCCC[S+]([O-])CCCC(F)(F)C(F)(F)F)[C@H]3[C@@H]1CC[C@@H]2O (some centres unmarked) [Fulvestrant, reference compound]
- Tumor response ΔT/ΔC (HBRX1298 xenograft; 5 mg/mouse SC QWeek): 48* %
- IC50 [1]: 2.6 nM
- Tumor response ΔT/ΔC (MCF-7 xenograft [2]; 5 mg/mouse SC QWeek): 18* %
- Tumor response ΔT/ΔC (MCF-7 xenograft [3]; 5 mg/mouse SC QWeek, Day 48): 24* %
- Tumor response in words (MCF-7 xenograft [3]): suppression of growth

Compound: Cc1nc(NC(=O)N2CCC[C@H]2C(N)=O)sc1-c1ccnc(C(C)(C)C(F)(F)F)c1 [BYL719, reference compound]
- Tumor response ΔT/ΔC (MCF-7 xenograft [4]; BYL719 20 mg/kg QD PO): 38%

Compound: CC/C(=C(\c1ccccc1)c1ccc(OCCN(C)C)cc1)c1ccccc1 [Tamoxifen, reference compound]
- Tumor response ΔT/ΔC (HBRX1298 xenograft; 40 mg/kg PO QD): 59%
- Tumor response Regression (MCF-7 xenograft [2]; 60 mg/kg PO 5QW): 11* %
- Tumor response ΔT/ΔC (MCF-7 xenograft [2]; 60 mg/kg PO 5QW): −4* %
- Tumor response Regression (MCF-7 xenograft [3]; [12]): 1* %
- Tumor response ΔT/ΔC (MCF-7 xenograft [3]; [12]): −0.8* %
- Tumor response in words (MCF-7 xenograft [3]): tumor stasis

Reference: patent US10695333B2 (NOVARTIS AG, priority 2017, dated 2020)
